From patent US20240300948A1, “Heterocyclic Compounds As Kinase Inhibitors” (Incyte Corporation, priority 2023, published 2024)

What was measured:
[1] = target: T1, pseudo-kinase domain (JH2, amino-acids 536-812 with 3 surface mutations W659A, W777A, F794H) of human Wild Type JAK2 (Homo sapiens, UniProt O60674, F794H/W659A/W777A); experiment: JAK2 LanthaScreen JH2-WT binding assay; details: 50 nM tracer, 1 hour at 25° C., read-out: JH2 BIND WT IC50
T1 construct: pseudo-kinase domain (JH2, amino-acids 536-812 with 3 surface mutations W659A, W777A, F794H); His (C); Avi (biotinylated) (C); purchased BPS Bioscience 79463; host or cells: baculovirus expression system
In short: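 Biotinylated His-Avi-tagged JAK2 JH2 (0.145 nM), baculovirus-expressed, incubated with compounds, 50 nM fluorescent JH2 tracer and 0.25 nM streptavidin-Tb, 1 h at 25° C in pH 7.5 Tris buffer with MgCl2 and DTT. Non-specific binding defined with 2 mM ATP. TR-FRET read; IC50 from four-parameter fit.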

[2] = target: T2, catalytic domain (JH1, amino acids 826-1132) of human JAK2 (Homo sapiens, UniProt O60674); experiment: JAK2 LanthaScreen JH1 binding assay; details: 50 nM tracer, 2 hours at 25° C., read-out: JH1 BIND IC50
T2 construct: catalytic domain (JH1, amino acids 826-1132) of human JAK2; FLAG (N); purchased Carna Biosciences 08-445-20N; host or cells: baculovirus expression system
In short: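 Binding of compounds to biotinylated, FLAG-tagged human JAK2 JH1 (aa 826-1132; 1.5 nM) was measured by LanthaScreen TR-FRET with 50 nM fluorescent tracer and 0.5 nM streptavidin-Tb, in pH 7.5 Tris buffer. Non-specific binding was defined with 2 mM ATP. After 2 h at 25 °C, IC50 was fitted from four-parameter dose-response curves.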

[3] = target: T3, pseudo-kinase domain (JH2, amino-acids 536-812 with 3 surface mutations W659A, W777A, F794H) of human V617F mutant JAK2 (Homo sapiens, UniProt O60674, F794H/V617F/W659A/W777A); experiment: JAK2 LanthaScreen JH2-V617F binding assay; details: 50 nM tracer, 1 hour at 25° C., read-out: JH2 BIND V617F IC50
T3 construct: pseudo-kinase domain (JH2, amino-acids 536-812 with 3 surface mutations W659A, W777A, F794H); His (C); Avi (biotinylated) (C); purchased BPS Bioscience 79498; host or cells: baculovirus expression system
In short: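 Binding was measured as TR-FRET displacement of 50 nM tracer from 0.26 nM biotinylated His-Avi protein, incubated one hour at 25° C; IC50 from a four-parameter fit.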

T2 sequence (O60674 826-1132): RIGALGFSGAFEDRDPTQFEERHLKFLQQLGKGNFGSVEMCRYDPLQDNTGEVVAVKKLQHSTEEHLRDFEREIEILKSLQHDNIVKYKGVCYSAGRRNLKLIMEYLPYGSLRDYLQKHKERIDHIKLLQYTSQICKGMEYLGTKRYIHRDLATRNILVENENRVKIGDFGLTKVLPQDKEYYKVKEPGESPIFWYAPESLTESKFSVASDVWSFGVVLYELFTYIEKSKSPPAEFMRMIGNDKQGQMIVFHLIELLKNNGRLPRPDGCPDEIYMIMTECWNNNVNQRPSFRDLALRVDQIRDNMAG
T1 sequence (O60674 536-812 W659A/W777A/F794H): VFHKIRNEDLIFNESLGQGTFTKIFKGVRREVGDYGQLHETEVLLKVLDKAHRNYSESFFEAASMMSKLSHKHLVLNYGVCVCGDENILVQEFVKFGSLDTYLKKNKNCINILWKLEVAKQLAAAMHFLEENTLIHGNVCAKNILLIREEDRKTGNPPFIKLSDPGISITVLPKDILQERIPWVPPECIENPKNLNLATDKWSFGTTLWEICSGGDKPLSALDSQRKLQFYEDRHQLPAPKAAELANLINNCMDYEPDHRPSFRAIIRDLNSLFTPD
T3 sequence (O60674 536-812 V617F/W659A/W777A/F794H): as the sequence (O60674 536-812 W659A/W777A/F794H) above, with V82F counted along it

SMILES	IC50 [1]	IC50 [2]	IC50 [3]
CC(C)n1ncc2cc(-c3c(-c4cnn(C)c4)[nH]c4ncc5c(c34)N(C3CCC4(CC3)CN(S(=O)(=O)C3(C)CC3)C4)C(=O)NC5)ccc21 [Example 20, 9-(1-isopropyl-1H-indazol-5-yl)-8-(1-methyl-1H-pyrazol-4-yl)-1-(2-((1-methylcyclopropyl)sulfonyl)-2-azaspiro[3.5]nonan-7-yl)-1,3,4,7-tetrahydro-2H-pyrrolo [3′,2′:5,6]pyrido[4,3-d]pyrimidin-2-one]	10 to 100 nM	> 1000 nM	10 to 100 nM
COC(=O)N[C@@H]1CC[C@@H](n2c(=O)ncc3cnc4[nH]c(-c5cnn(C)c5)c(-c5ccc6c(cnn6C)c5)c4c32)C1 [Example 37, Methyl ((1R,3R)-3-(9-(1-methyl-1H-indazol-5-yl)-8-(1-methyl-1H-pyrazol-4-yl)-2-oxo-2,7-dihydro-1H-pyrrolo[3′,2′:5,6]pyrido[4,3-d]pyrimidin-1-yl)cyclopentyl)carbamate]	100 to 500 nM	> 1000 nM	100 to 500 nM
CC(C)n1ncc2cc(-c3c(-c4cnn(C)c4)[nH]c4ncc5c(c34)N(C3CCC4(CC3)CN(C(=O)NCC(F)F)C4)C(=O)NC5)ccc21 [Example 19, N-(2,2-Difluoroethyl)-7-(9-(1-isopropyl-1H-indazol-5-yl)-8-(1-methyl-1H-pyrazol-4-yl)-2-oxo-2,3,4,7-tetrahydro-1H-pyrrolo[3′,2′:5,6]pyrido[4,3-d]pyrimidin-1-yl)-2-azaspiro[3.5] nonane-2-carboxamide]	10 to 100 nM	100 to 500 nM	10 to 100 nM
COC(=O)N1CC2(CCC(N3C(=O)NCc4cnc5[nH]c(-c6cnn(C)c6)c(-c6ccc7c(cnn7C(C)C)c6)c5c43)CC2)C1 [Example 18, Methyl 7-(9-(1-isopropyl-1H-indazol-5-yl)-8-(1-methyl-1H-pyrazol-4-yl)-2-oxo-2,3,4,7-tetrahydro-1H-pyrrolo[3′,2′:5,6]pyrido[4,3-d]pyrimidin-1-yl)-2-azaspiro[3.5] nonane-2-carboxylate]	10 to 100 nM	100 to 500 nM	10 to 100 nM
